Entries after “also recorded” stand apart in the source; their conditions may differ.
Columns and labels:
[1] = Solubility / precipitation of IV formulations on pH adjustment; format: physicochemical; details: pH lowered with hydrochloric acid solution
Procedure: Summary of Experiments. […] The pH of the compounding solution would later be adjusted by sodium hydroxide solution to the target pH. […] Only samples containing 20% SBECD (samples S-1.1 and S-2.1) were fully soluble at the desired pH.
Sample Preparation. To a 20 mL scintillation vial was added 60 mg of the racemate of the free base of the compound of Formula I and a magnetic stir bar. 3 mL of formulation solution (either 0%, 10% or 20% w/w SBECD in H2O) was added. The pH of the mixture was adjusted to approximately pH 3 by the addition of 1N HCl. Upon full dissolution (with magnetic stirring, sonication if necessary), the IV formulation was adjusted to the final pH by the addition of 1N NaOH solution. The IV formulation was filtered through a syringe filter, separated into 3 samples of approximately equal volume, and the samples were transferred to a stability chamber at 2-5° C., 25° C., or 40° C. At the specified time point the sample was removed from the stability chamber, an aliquot of the IV formulation was removed and diluted to 0.5 mg/mL with H2O for HPLC analysis.
As noted above, significant precipitation of compound D1 occurred upon adjusting the IV formulation to the final pH level of 5 or 6 for IV formulations containing <20% SBECD. […] IV formulations were filtered prior to conducting the stability studies.

[2] = tested on: synovial sarcoma cell lines (SYO1, Yamato, HS-SY-II, and ASKA); assay: Growth of synovial sarcoma cell lines, IncuCyte confluency / crystal violet / colony imaging (Example 2); format: cell-based; details: FIGS. 4, 5, 6
Procedure: (§1) Cells were treated with DMSO or the BRD9 degrader, Compound 1, at indicated concentrations, and proliferation was monitored from day 7 to day 14 by measuring confluency overtime using an IncuCyte live cell analysis system (FIG. 4). Growth medium and compounds were refreshed every 3-4 days.
(§2) Cells were seeded into 12-well plates and treated with DMSO, 1 μM BRD9 inhibitor, Compound 2 (also known as BI-7273, see Martin et al, J Med Chem. 59(10):4462-4475 (2016); see structure of compound 2 below), or 1 μM BRD9 degrader, Compound 1.
(§3) The number of cells was optimized for each cell line. Growth medium and compounds were refreshed every 3-5 days. SYO1, Yamato, A549, 293T and HS-SY-II cells were fixed and stained at day 11. ASKA cells were fixed and stained at day 23. Staining was done by incubation with crystal violet solution (0.5 g Crystal Violet, 27 ml 37% Formaldehyde, 100 mL 10×PBS, 10 mL Methanol, 863 dH20 to 1 L) for 30 min followed by 3× washes with water and drying the plates for at least 24 h at room temperature. Subsequently plates were scanned on an Odyssey CLx Imaging system (FIG. 5).
(§4) Cells were seeded into 96-well ultra-low cluster plate (Costar, #7007) in 200 μL complete media and treated at day 2 with DMSO, Staurosporin, or BRD9 degrader, Compound 1, at indicated doses (FIG. 2C). Media and compounds were changed every 5 d and cell colonies were imaged at day 14.

[3] = tested on: non-synovial control cancer cell lines (293T, A549, G401); assay: Growth of non-synovial control cancer cell lines (Example 2); format: cell-based
Procedure: as §1, §2, §3, §4

[4] = tested on: synovial sarcoma cell lines (SYO1, HS-SY-II, and ASKA); assay: Growth of synovial sarcoma cell lines, crystal violet day 14 (Example 3); format: cell-based; details: daily treatment
Procedure: (§5) Procedure: Cells were seeded into 6-well or 12-well plates and were treated daily with a BRD9 degrader (Compound 1), a bromo-domain BRD9 binder (Compound 2), E3 ligase binder (lenalidomide), DMSO, or staurosporin (positive control for cell killing), at indicated concentrations. The number of cells was optimized for each cell line. Growth media was refreshed every 5 days. By day 14, medium was removed, cells were washed with PBS, and stained using 500 μL of 0.005% (w/v) crystal violet solution in 25% (v/v) methanol for at least 1 hour at room temperature. Subsequently plates were scanned on an Odyssey CLx Imaging system.

[5] = tested on: non-synovial control cancer cell lines (RD, HCT116, and Calu6); assay: Growth of non-synovial control cancer cell lines, crystal violet day 14 (Example 3); format: cell-based; details: daily treatment
Procedure: as §5

SYO1 cells [6] = assay: Cell cycle analysis, Click-iT Plus EdU Flow Cytometry Assay; format: cell-based, human; details: SYO1, 200 nM or 1 μM, 8 or 13 days, compared to DMSO and lenalidomide
Procedure: (§6) Procedure: SYO1 cells were treated for 8 or 13 days with DMSO, a BRD9 degrader (Compound 1) at 200 nM or 1 μM, or an E3 ligase binder (lenalidomide) at 200 nM. Compounds were refreshed every 5 days. Cell cycle analysis was performed using the Click-iT™ Plus EdU Flow Cytometry Assay (Invitrogen). The apoptosis assay was performed using the Annexin V-FITC Apoptosis Detection Kit (Sigma A9210). Assays were performed according to the manufacturer's protocol.

SYO1 cells [7] = assay: Apoptosis assay, Annexin V-FITC Apoptosis Detection Kit; format: cell-based, human; details: SYO1, 8 days, compared to DMSO controls
Procedure: as §6

[8] = biological target: T1, Nanoluciferase-BRD9 fusion protein (Homo sapiens, UniProt Q9H8M2); assay: SYO1 BRD9 NanoLuc degradation assay; format: cell-based; details: 6 hours incubation; read-out: SYO1 BRD9-NanoLuc degradation IC50
T1 construct: fused on or other part: 3xFLAG tag and Nanoluciferase (NLuc) as reporter handle, fused to BRD9. b953 puts them at the N-terminus
T1 sequence (Q9H8M2 134-240 limits assumed): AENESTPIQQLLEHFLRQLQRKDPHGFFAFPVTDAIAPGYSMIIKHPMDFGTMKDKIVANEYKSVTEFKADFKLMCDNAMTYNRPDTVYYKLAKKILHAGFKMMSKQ
Procedure: Procedure: A stable SYO-1 cell line expressing 3×FLAG-NLuc-BRD9 was generated. On day 0 cells were seeded in 30 μL media into each well of 384-well cell culture plates. The seeding density was 8000 cells/well. On day 1, cells were treated with 30 nL DMSO or 30 nL of 3-fold serially DMSO-diluted compounds (10 points in duplicates with 1 μM as final top dose). Subsequently plates were incubated for 6 hours in a standard tissue culture incubator and equilibrated at room temperature for 15 minutes. Nanoluciferase activity was measured by adding 15 μL of freshly prepared Nano-Glo Luciferase Assay Reagent (Promega N1130), shaking the plates for 10 minutes and reading the bioluminescence using an EnVision reader.
Results: The Inhibition % was calculated using the following formula: % Inhibition=100×(LumHC−LumSample)/(LumHC−LumLC). DMSO treated cells are employed as High Control (HC) and 1 μM of a known BRD9 degrader standard treated cells are employed as Low Control (LC).

COc1cc(-c2cn(C)c(=O)c3cnc(N4CCC4)cc23)cc(OC)c1CN1CCC(CN2CCC3(CC2)CN(c2ccc4c(c2)C(=O)N(C2CCC(=O)NC2=O)C4)C3)CC1 (racemic) [racemate of the free base of the compound of Formula I]
dissolution at pH 3 [1]: complete dissolution

COc1cc(-c2cn(C)c(=O)c3cnccc23)cc(OC)c1CN(C)CC(=O)NCCOCCOCCNc1cccc2c1C(=O)N(C1CCC(=O)NC1=O)C2=O (centres unmarked) [Compound 1]
growth of synovial sarcoma cell lines [2]: inhibition of the growth of the cells | growth of non-synovial control cancer cell lines [3]: does not result in inhibition of the growth | growth of synovial sarcoma cell lines [4]: inhibition of the growth of the cells; also recorded: most significant growth inhibition in all synovial cell lines | growth of non-synovial control cancer cell lines [5]: did not result in inhibition of the growth | cells in the S-phase of the cell cycle (SYO1 cells [6]): reduced numbers of cells in the S-phase of the cell cycle | early- and late-apoptotic cells (SYO1 cells [7]): increased numbers of early- and late-apoptotic cells

[2H]C([2H])([2H])Oc1cc(-c2cn(C)c(=O)c3cnc(N4CCC4)cc23)cc(OC([2H])([2H])[2H])c1CN1CCC(CN2CCC3(CC2)CN(c2ccc4c(c2)C(=O)N(C2CCC(=O)NC2=O)C4)C3)CC1 (centres unmarked) [Compound D2]
DC50 [8]: 0.18 nM

Reference: patent publication US11767330B2, “Citrate salt, pharmaceutical compositions, and methods of making and using the same” (Foghorn Therapeutics Inc., priority 2021, dated 2023)
